{"source": "patent US8613858B2", "about": "“Separation process” (Dupont Nutrition Biosciences APS, priority 2005, dated 2013)", "origin": "cited, not measured here", "key": {"[1]": {"conditions": "characteristic properties of model compounds"}, "[2]": {"conditions": "characteristic properties of model compounds", "remark": "listed apart in the source"}}, "data": [{"smiles": "OCC(O)CO", "note": "[Glycerol]", "values": [{"measurement": "LogPOW", "setting": "[1]", "result": "−1.76"}]}, {"smiles": "C[N+](C)(C)CC(=O)O", "note": "[Betaine]", "values": [{"measurement": "LogPOW", "setting": "[1]", "result": "−2.93"}, {"measurement": "Water solubility", "setting": "[2]", "result": 611, "unit": "mg/mL"}]}, {"smiles": "O=C(O)CC(O)(CC(=O)O)C(=O)O", "note": "[Citric acid]", "values": [{"measurement": "LogPOW", "setting": "[1]", "result": "−1.67"}]}]}
